# Test results reported in PubChem BioAssay (NCI).
#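 A five-concentration, 48-hour dose response in 96-well plates underlies each endpoint, interpolated linearly between surrounding concentrations. GI50: concentration for 50% inhibition of growth. TGI denotes the concentration required for complete inhibition of growth.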
# Experiments:
# Experiment in all cases: growth of human tumour cells (NCI), 48 h
# 786-0 renal = tested on: 786-0 renal
# A498 renal = tested on: A498 renal
# A549 NSCLC = tested on: A549 NSCLC
# ACHN renal = tested on: ACHN renal
# BT-549 breast = tested on: BT-549 breast
# CAKI-1 renal = tested on: CAKI-1 renal
# CCRF-CEM leukemia = tested on: CCRF-CEM leukemia
# COLO 205 colon = tested on: COLO 205 colon
# DU-145 prostate = tested on: DU-145 prostate
# EKVX NSCLC = tested on: EKVX NSCLC
# HCC-2998 colon = tested on: HCC-2998 colon
# HCT-116 colon = tested on: HCT-116 colon
# HCT-15 colon = tested on: HCT-15 colon
# HL-60(TB) leukemia = tested on: HL-60(TB) leukemia
# HOP-62 NSCLC = tested on: HOP-62 NSCLC
# HOP-92 NSCLC = tested on: HOP-92 NSCLC
# HS 578T breast = tested on: HS 578T breast
# HT29 colon = tested on: HT29 colon
# IGROV1 ovarian = tested on: IGROV1 ovarian
# K-562 leukemia = tested on: K-562 leukemia
# KM12 colon = tested on: KM12 colon
# LOX IMVI melanoma = tested on: LOX IMVI melanoma
# M14 melanoma = tested on: M14 melanoma
# MALME-3M melanoma = tested on: MALME-3M melanoma
# MCF7 breast = tested on: MCF7 breast
# MDA-MB-231 breast = tested on: MDA-MB-231 breast
# MDA-MB-435 = tested on: MDA-MB-435
# MOLT-4 leukemia = tested on: MOLT-4 leukemia
# NCI-H226 lung = tested on: NCI-H226 lung
# NCI-H23 lung = tested on: NCI-H23 lung
# NCI-H460 lung = tested on: NCI-H460 lung
# NCI-H522 lung = tested on: NCI-H522 lung
# NCI/ADR-RES ovarian = tested on: NCI/ADR-RES ovarian
# OVCAR-3 ovarian = tested on: OVCAR-3 ovarian
# OVCAR-4 ovarian = tested on: OVCAR-4 ovarian
# OVCAR-5 ovarian = tested on: OVCAR-5 ovarian
# OVCAR-8 ovarian = tested on: OVCAR-8 ovarian
# PC-3 prostate = tested on: PC-3 prostate
# RPMI-8226 leukemia = tested on: RPMI-8226 leukemia
# RXF 393 renal = tested on: RXF 393 renal
# SF-268 CNS = tested on: SF-268 CNS
# SF-295 CNS = tested on: SF-295 CNS
# SF-539 CNS = tested on: SF-539 CNS
# SK-MEL-2 melanoma = tested on: SK-MEL-2 melanoma
# SK-MEL-28 melanoma = tested on: SK-MEL-28 melanoma
# SK-MEL-5 melanoma = tested on: SK-MEL-5 melanoma
# SK-OV-3 ovarian = tested on: SK-OV-3 ovarian
# SN12C renal = tested on: SN12C renal
# SNB-19 CNS = tested on: SNB-19 CNS
# SR leukemia = tested on: SR leukemia
# SW-620 colon = tested on: SW-620 colon
# T-47D breast = tested on: T-47D breast
# TK-10 renal = tested on: TK-10 renal
# U251 CNS = tested on: U251 CNS
# UACC-257 melanoma = tested on: UACC-257 melanoma
# UACC-62 melanoma = tested on: UACC-62 melanoma
# UO-31 renal = tested on: UO-31 renal
smiles,measurement,setting,value
C/C=C(/C)C(=O)OC1C=C(CO)C(=O)C(OC(=O)C2(C)OC2C)C1C(C)C (centres undefined),GI50,786-0 renal,1790 nM
same,TGI,786-0 renal,3.24 µM
same,GI50,A498 renal,1740 nM
same,TGI,A498 renal,3.9 µM
same,GI50,A549 NSCLC,2600 nM
same,TGI,A549 NSCLC,7.7 µM
same,GI50,ACHN renal,1480 nM
same,TGI,ACHN renal,2810 nM
same,GI50,BT-549 breast,2020 nM
same,TGI,BT-549 breast,4.35 µM
same,GI50,CAKI-1 renal,1810 nM
same,TGI,CAKI-1 renal,3.2 µM
same,GI50,CCRF-CEM leukemia,653 nM
same,TGI,CCRF-CEM leukemia,5.25 µM
same,GI50,COLO 205 colon,1850 nM
same,TGI,COLO 205 colon,3.43 µM
same,GI50,DU-145 prostate,1520 nM
same,TGI,DU-145 prostate,2880 nM
same,GI50,EKVX NSCLC,2750 nM
same,TGI,EKVX NSCLC,7.63 µM
same,GI50,HCC-2998 colon,1740 nM
same,TGI,HCC-2998 colon,3.22 µM
same,GI50,HCT-116 colon,1130 nM
same,TGI,HCT-116 colon,2480 nM
same,GI50,HCT-15 colon,1400 nM
same,TGI,HCT-15 colon,3.09 µM
same,GI50,HL-60(TB) leukemia,1160 nM
same,TGI,HL-60(TB) leukemia,6.45 µM
same,GI50,HOP-62 NSCLC,1960 nM
same,TGI,HOP-62 NSCLC,4.3 µM
same,GI50,HOP-92 NSCLC,1650 nM
same,TGI,HOP-92 NSCLC,3.33 µM
same,GI50,HS 578T breast,3.68 µM
same,TGI,HS 578T breast,22.9 µM
same,GI50,HT29 colon,1660 nM
same,TGI,HT29 colon,3.38 µM
same,GI50,IGROV1 ovarian,1990 nM
same,TGI,IGROV1 ovarian,4.55 µM
same,GI50,K-562 leukemia,1330 nM
same,TGI,K-562 leukemia,10.8 µM
same,GI50,KM12 colon,1830 nM
same,TGI,KM12 colon,3.67 µM
same,GI50,LOX IMVI melanoma,1710 nM
same,TGI,LOX IMVI melanoma,3.3 µM
same,GI50,M14 melanoma,1580 nM
same,TGI,M14 melanoma,3.49 µM
same,GI50,MALME-3M melanoma,1740 nM
same,TGI,MALME-3M melanoma,3.53 µM
same,GI50,MCF7 breast,1190 nM
same,TGI,MCF7 breast,4.14 µM
same,GI50,MDA-MB-231 breast,1720 nM
same,TGI,MDA-MB-231 breast,3.79 µM
same,GI50,MDA-MB-435,1490 nM
same,TGI,MDA-MB-435,2880 nM
same,GI50,MOLT-4 leukemia,1960 nM
same,TGI,MOLT-4 leukemia,6.5 µM
same,GI50,NCI-H226 lung,3.55 µM
same,TGI,NCI-H226 lung,13.7 µM
same,GI50,NCI-H23 lung,2090 nM
same,TGI,NCI-H23 lung,4.88 µM
same,GI50,NCI-H460 lung,2930 nM
same,TGI,NCI-H460 lung,8.27 µM
same,GI50,NCI-H522 lung,1070 nM
same,TGI,NCI-H522 lung,2540 nM
same,GI50,NCI/ADR-RES ovarian,3.18 µM
same,TGI,NCI/ADR-RES ovarian,17.4 µM
same,GI50,OVCAR-3 ovarian,1170 nM
same,TGI,OVCAR-3 ovarian,2450 nM
same,GI50,OVCAR-4 ovarian,1930 nM
same,TGI,OVCAR-4 ovarian,3.91 µM
same,GI50,OVCAR-5 ovarian,1930 nM
same,TGI,OVCAR-5 ovarian,3.74 µM
same,GI50,OVCAR-8 ovarian,2070 nM
same,TGI,OVCAR-8 ovarian,5.54 µM
same,GI50,PC-3 prostate,1750 nM
same,TGI,PC-3 prostate,4.5 µM
same,GI50,RPMI-8226 leukemia,1500 nM
same,TGI,RPMI-8226 leukemia,5.17 µM
same,GI50,RXF 393 renal,1770 nM
same,TGI,RXF 393 renal,3.27 µM
same,GI50,SF-268 CNS,2460 nM
same,TGI,SF-268 CNS,6.32 µM
same,GI50,SF-295 CNS,2620 nM
same,TGI,SF-295 CNS,8.16 µM
same,GI50,SF-539 CNS,1860 nM
same,TGI,SF-539 CNS,3.38 µM
same,GI50,SK-MEL-2 melanoma,1850 nM
same,TGI,SK-MEL-2 melanoma,3.59 µM
same,GI50,SK-MEL-28 melanoma,1780 nM
same,TGI,SK-MEL-28 melanoma,3.33 µM
same,GI50,SK-MEL-5 melanoma,1560 nM
same,TGI,SK-MEL-5 melanoma,3.04 µM
same,GI50,SK-OV-3 ovarian,4.45 µM
same,TGI,SK-OV-3 ovarian,14.3 µM
same,GI50,SN12C renal,1450 nM
same,TGI,SN12C renal,2990 nM
same,GI50,SNB-19 CNS,2330 nM
same,TGI,SNB-19 CNS,5.87 µM
same,GI50,SR leukemia,778 nM
same,TGI,SR leukemia,8.2 µM
same,GI50,SW-620 colon,1980 nM
same,TGI,SW-620 colon,4.16 µM
same,GI50,T-47D breast,1270 nM
same,TGI,T-47D breast,2790 nM
same,GI50,TK-10 renal,1880 nM
same,TGI,TK-10 renal,3.36 µM
same,GI50,U251 CNS,1520 nM
same,TGI,U251 CNS,2850 nM
same,GI50,UACC-257 melanoma,1370 nM
same,TGI,UACC-257 melanoma,2750 nM
same,GI50,UACC-62 melanoma,1330 nM
same,TGI,UACC-62 melanoma,2680 nM
same,GI50,UO-31 renal,1610 nM
same,TGI,UO-31 renal,2960 nM
